Data reported in patent US20060069132A1, “Azolecarboxamide herbicides” (priority 2004, published 2006).

Legend:
barnyardgrass [1] = test: Test B pre-/postemergence herbicide test; format: in vivo, Echinochloa crus-galli
In short: (§1)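 Flooded paddy rice and barnyardgrass were treated at the 2-leaf stage; upland plantings received compound either on sown seed or on 1- to 4-leaf seedlings. All were kept 13–15 days in a greenhouse and scored visually, 0–100, relative to untreated plants.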

Surinam grass = test: Test B pre-/postemergence herbicide test; format: in vivo, Urochloa decumbens
In short: (§2)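 Herbicidal effect was judged by eye on a 0–100 scale after plants stood 13 to 15 days in the greenhouse following pre- or postemergence treatment with surfactant-containing formulations.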

cocklebur = test: Test B pre-/postemergence herbicide test; format: in vivo, Xanthium strumarium
In short: as §1

ducksalad = test: Test B flooded paddy test; format: in vivo, Heteranthera limosa; settings: 1000 g ai/ha, visual rating, scale 0 to 100 (0 no effect, 100 complete control), 13 to 15 days
In short: (§3)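 After treating 2-leaf paddy plants or 2–18 cm postemergence plants (1 to 4 leaves) with formulated chemical, researchers kept them in a greenhouse for 13–15 days. Effects were judged visually versus controls: 0 indicates none, 100 total control.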

rice = test: Test B flooded paddy test; format: in vivo, Oryza sativa; settings: 1000 g ai/ha, visual rating, scale 0 to 100 (0 no effect, 100 complete control), 13 to 15 days
In short: (§4)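 Treated at 2-leaf (paddy) or 1–4-leaf, 2–18 cm (postemergence); greenhouse 13–15 d; visual score vs control, 0 none to 100 complete control; dash = not tested.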

velvetleaf = test: Test B pre-/postemergence herbicide test; format: in vivo, Abutilon theophrasti
In short: as §2

large crabgrass = test: Test B pre-/postemergence herbicide test; format: in vivo, Digitaria sanguinalis
In short: as §2

wild oat = test: Test B postemergence herbicide test; format: in vivo, Avena fatua; settings: Postemergence, scale 0 (no effect) to 100 (complete control)
In short: as §4

barnyardgrass [2] = test: Test B flooded paddy test; format: in vivo, Echinochloa crus-galli; settings: 1000 g ai/ha, visual rating, scale 0 to 100 (0 no effect, 100 complete control), 13 to 15 days
In short: as §3

morningglory = test: Test B pre-/postemergence herbicide test; format: in vivo, Ipomoea coccinea
In short: as §1

giant foxtail = test: Test B pre-/postemergence herbicide test; format: in vivo, Setaria faberi
In short: as §2

wheat = test: Test B postemergence herbicide test; format: in vivo, Triticum aestivum; settings: Postemergence, 500 g ai/ha; visual rating after 13 to 15 days, scale 0 (no effect) to 100 (complete control)
In short: as §4

[3] = system: small flower umbrella sedge; test: Test B flooded paddy test; format: in vivo, Cyperus difformis; settings: 1000 g ai/ha, visual rating, scale 0 to 100 (0 no effect, 100 complete control), 13 to 15 days
In short: as §3

lambsquarters = test: Test B pre-/postemergence herbicide test; format: in vivo, Chenopodium album
In short: as §2

pigweed = test: Test B pre-/postemergence herbicide test; format: in vivo, Amaranthus retroflexus
In short: as §2

[4] = Postemergence, 125 g ai/ha, scale 0 (no effect) to 100 (complete control)
[5] = Postemergence, 500 g ai/ha, visual rating after 13 to 15 days, scale 0 (no effect) to 100 (complete control)
[6] = Preemergence, 500 g ai/ha, scale 0 to 100
[7] = preemergence, 125 g ai/ha, 0 to 100 scale, 0 is no effect, 100 is complete control

CCCCn1nc(C(C)(C)C)cc1C(=O)Nc1cccc(C(=O)NCC)c1 [Compound 41]
0: Cocklebur plant response rating (cocklebur; [6]) | Plant response rating, Velvetleaf (velvetleaf; [7]) | Plant response rating, Morningglory (morningglory; [7])
10: Barnyardgrass plant response rating (barnyardgrass [1]; [4]) | Plant response rating, Surinam Grass (Surinam grass; [7]) | Cocklebur plant response rating (cocklebur; [4]) | Velvetleaf plant response rating (velvetleaf; [6]) | Oat, Wild plant response rating (wild oat; 125 g ai/ha) | Plant response rating, Oat, Wild (wild oat; 500 g ai/ha, visual rating after 13 to 15 days) | Morningglory plant response rating (morningglory; [6]) | Foxtail, Giant plant response rating (giant foxtail; [4]) | Plant response rating, Foxtail, Giant (giant foxtail; [7]) | Plant response rating, Wheat (wheat)
100: Crabgrass, Large plant response rating (large crabgrass; [6]) | Lambsquarters plant response rating (lambsquarters; [6])
60: Surinam Grass plant response rating (Surinam grass; [6]) | Ducksalad plant response rating (ducksalad) | Lambsquarters plant response rating (lambsquarters; [4])
70: Foxtail, Giant plant response rating (giant foxtail; [6]) | Sedge, Umbrella plant response rating [3] | Plant response rating, Lambsquarters (lambsquarters; [5]) | Plant response rating, Pigweed (pigweed; [5]) | Pigweed plant response rating (pigweed; [6]) | Plant response rating, Pigweed (pigweed; [7])
40: Plant response rating, Cocklebur (cocklebur; [5])
80: Barnyardgrass plant response rating (barnyardgrass [1]; [6]) | Plant response rating, Lambsquarters (lambsquarters; [7])
50: Barnyardgrass plant response rating (barnyardgrass [2])
20: Plant response rating, Barnyardgrass (barnyardgrass [1]; [5]) | Plant response rating, Surinam Grass (Surinam grass; [5]) | Rice plant response rating (rice) | Plant response rating, Velvetleaf (velvetleaf; [5]) | Crabgrass, Large plant response rating (large crabgrass; [4]) | Plant response rating, Foxtail, Giant (giant foxtail; [5])
30: Plant response rating, Crabgrass, Large (large crabgrass; [5])
